Measured values reported in patent US6214844A, “Substituted imidazole compounds” (SmithKline Beecham Corporation, priority 1999, dated 2001).

Experiments:
human PGHS-2 = test: Prostoglandin endoperoxide synthase-2 (PGHS-2) assay: PGHS-2 protein expression in LPS stimulated human monocytes; format: cell-based
Description: Prostoglandin endoperoxide synthase-2 (PGHS-2) assay:
The following assay describes a method for determining the inhibitory effects of compounds of Formula (I) on human PGHS-2 protein expression in LPS stimulated human monocytes.
Method: Human peripheal blood monocytes were isolated from buffy coats by centrifugation through Ficoll and Percoll gradients. Cells were seeded at 2×10^6 /well in 24 well plates and allowed to adhere for 1 hour in RPMI supplemented with 1% human AB serum, 20 mM L-glutamine, Penicillin-Streptomycin and 10 mM HEPES. Compounds were added at various concentrations and incubated at 37° C. for 10 minutes. LPS was added at 50 ng/well (to induce enzyme expression) and incubated overnight at 37° C. The supernatant was removed and cells washed once in cold PBS. The cells were lysed in 100 μl of cold lysis buffer(50 mM Tris/HCl pH 7.5, 150 mM NaCl, 1% NP40, 0.5% sodium deoxycholate, 0.1% SDS, 300 ug/ml DNAse, 0.1% TRITON X-100, 1 mM PMSF, 1 mM leupeptin, 1 mM pepstatin). The lysate was centrifuged (10,000×g for 10 min. at 4° C.) to remove debris and the soluble fraction was subjected to SDS PAGE. analysis (12% gel). Protein separated on the gel were transferred onto nitrocellulose membrane by electrophoretic means for 2 hours at 60 volts. The membrane was pretreated for one hour in PBS/0.1% Tween 20 with 5% non-fat dry milk. After washing 3 times in PBS/Tween buffer, the membrane was incubated with a 1:2000 dilution of a monospecific antiserum to PGHS-2 or a 1:1000 dilution of an antiserum to PGHs-1 in PBS/Tween with 1% BSA for one hour with continuous shaking. The membrane was washed 3× in PBS/Tween and then incubated with a 1:3000 dilution of horseradish peroxidase conjugated donkey antiserum to rabbit Ig (Amershamn) in PBS/Tween with 1% BSA for one hour with continuous shaking. The membrane was then washed 3× in PBS/Tween and the ECL immunodetection system (Amersham) was used to detect the level of expression of prostaglandin endoperoxide synthases-2.

CSBP2 = molecular target: T1, CSBP2 (Homo sapiens, UniProt Q16539); test: CSBP kinase assay (32P transfer to EGFR-derived peptide T669); format: biochemical
T1 construct: made in house
T1 sequence (Q16539 whole entry): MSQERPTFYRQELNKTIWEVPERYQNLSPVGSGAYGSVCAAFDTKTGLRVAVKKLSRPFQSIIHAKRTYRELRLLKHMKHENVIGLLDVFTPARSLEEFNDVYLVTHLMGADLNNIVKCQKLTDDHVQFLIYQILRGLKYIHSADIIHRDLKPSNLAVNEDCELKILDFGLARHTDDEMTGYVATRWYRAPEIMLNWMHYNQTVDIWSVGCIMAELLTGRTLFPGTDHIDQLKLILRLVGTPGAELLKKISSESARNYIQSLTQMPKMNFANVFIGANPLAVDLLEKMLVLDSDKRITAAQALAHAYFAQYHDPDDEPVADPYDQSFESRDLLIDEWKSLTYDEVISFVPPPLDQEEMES
Description: Compounds (5 ul from [6X] stock^(2)) are pre-incubated with the enzyme and peptide for 20 min on ice prior to starting the reactions with 32P/MgATP. Reactions are incubated at 30° C. for 10 min and stopped by adding 10 ul of 0.3 M phosphoric acid. 32P-labeled peptide is separated on phosphocellulose (Wattman, p81) filters by spotting 30 ul reaction mixture. Filters are washed 3 times with […] phosphoric acid followed by 2 washes with H2 O, and counted for 32P.
^(2) Compounds are usually dissolved in DMSO and are diluted in 25 mM Hepes buffer to get final concentration of DMSO of 0.17%.

IL-1 = test: Interleukin-1 (IL-1) production by LPS-stimulated human peripheral blood monocytes; format: cell-based; details: LPS 50 ng/ml
Description: Human peripheral blood monocytes are isolated and purified from either fresh blood preparations from volunteer donors, or from blood bank buffy coats, according to the procedure of Colotta et al, J Immunol, 132, 936 (1984). These monocytes (1×10^6) are plated in 24-well plates at a concentration of 1-2 million/ml per well. The cells are allowed to adhere for 2 hours, after which time non-adherent cells are removed by gentle washing. Test compounds are then added to the cells for 1 h before the addition of lipopolysaccharide (50 ng/ml), and the cultures are incubated at 37° C. for an additional 24 h. At the end of this period, culture supernatants are removed and clarified of cells and all debris. Culture supernatants are then immediately assayed for IL-1 biological activity, either by the method of Simon et al., J. Immunol. Methods, 84, 85, (1985) (based on ability of IL-1 to stimulate a Interleukin 2 producing cell line (EL-4) to secrete IL-2, in concert with A23187 ionophore) or the method of Lee et al., J. Immuno Therapy, 6 (1), 1-12 (1990) (ELISA assay).

[1] = molecular target: T2, cytokine specific binding protein (CSBP) (Homo sapiens, UniProt Q16539); test: Cytokine Specific Binding Protein Assay (radiocompetitive binding, cytosolic fraction of THP.1 cells); details: THP.1 cytosolic fraction, radiolabeled compound
T2 construct: soluble cystosolic fraction from THP.1 cells; endogenous in cells; host or cells: THP.1 cells, soluble cytosolic fraction
T2 sequence (Q16539 whole entry): as above

[2] = active, rank order potency similar to that for inhibiting cytokine production

## COc1ccc(C2CNC(=O)C2)cc1OC1CCCC1 (stereo not drawn) [rolipramr]
Human PGHS-2; inactive, up to 10 μM
  inhibition of LPS induced PGHS-2 protein expression: inactive

## C[S+]([O-])c1ccc(-c2nc3n(c2-c2ccncc2)CCC3)cc1 (stereo not drawn) [2-(4-Methylsulfinylphenyl)-3-(4-pyridyl)-6,7-dihydro-(5H)-pyrrolo[1,2-a]imidazole]
Human PGHS-2; inactive, up to 10 μM
  inhibition of LPS induced PGHS-2 protein expression: inactive

## O=C1CCN(c2ccccc2)N1 [phenidone]
Human PGHS-2; inactive, up to 10 μM
  inhibition of LPS induced PGHS-2 protein expression: inactive

## CCOC(=O)N1CCC(n2cnc(-c3ccc([S+](C)[O-])cc3)c2-c2ccnc([S+](C)[O-])n2)CC1 (stereo not drawn) [Example 10]
CSBP2
  IC50: > 50 µM

## CC(C)Oc1cc(-c2c(-c3ccc(F)cc3)ncn2C2CCNCC2)ccn1 [Example 5, 5-(2-iso-Propoxy4-pyridinyl)-4-(4-fluorophenyl)-1-(4-piperidinyl)imidazole]
CSBP2
  IC50: > 50 µM

## Fc1ccc(-c2nc3n(c2-c2ccncc2)CCS3)cc1 [6-(4-Fluorophenyl)-2,3-dihydro-5-(4-pyridinyl)imidazo[2,1-b]thiazole]
Human PGHS-2; [2]
  inhibition of LPS induced PGHS-2 protein expression: active

## C[S+]([O-])c1ccc(-c2nc(-c3ccc(F)cc3)c(-c3ccncc3)[nH]2)cc1 (stereo not drawn) [4-(4-Fluorophenyl)-2-(4-methylsulfinylphenyl)-5-(4-pyridyl)imidazole]
Human PGHS-2; [2]
  inhibition of LPS induced PGHS-2 protein expression: active

## CC(Cc1ccc(O)c(O)c1)C(C)Cc1ccc(O)c(O)c1 (stereo not drawn) [NDGA]
Human PGHS-2; inactive, up to 10 μM
  inhibition of LPS induced PGHS-2 protein expression: inactive

## C[C@@H]1C[C@H]2[C@@H]3CCC4=CC(=O)C=C[C@]4(C)[C@@]3(F)[C@@H](O)C[C@]2(C)[C@@]1(O)C(=O)CO [Dexamethasone]
Human PGHS-2; [2]
  inhibition of LPS induced PGHS-2 protein expression: active

## CCOC(=O)N1CCC(n2cnc(-c3ccc(SC)cc3)c2-c2ccnc(SC)n2)CC1 [Example 9, 1-(1-Ethylcarboxylpiperidin-4-yl)-3-(4-thiomethylphenyl)-5-[2-(thiomethyl)pyrimidin-4-yl]-imidazole]
CSBP2
  IC50: > 50 µM

## COc1nccc(-c2c(-c3ccc(F)cc3)ncn2C2CCNCC2)n1 [Example 1, 5-(2-Methoxy-4-pyrimidinyl)-4-(4-fluorophenyl)-1-(4-piperidinyl)imidazole]
IL-1
  inhibition of IL-1 production: positive inhibition

## CSc1nccc(-c2c(-c3ccc(F)cc3)ncn2C2CCNCC2)n1 [Example 6, 5-(2-Methylthio-4-pyrimidinyl)4-(4-fluorophenyl)-1-(4-piperidinyl)imidazole]
[1]
  IC50: < 50 µM
